Assay results as given in patent US12492184B2, “Heteroaryl compounds, preparation methods and uses thereof” (InventisBio Co., Ltd., priority 2020, dated 2025).

What follows are compounds tested on HEK-Blue IL23 Reporter (assay: HEK-Blue IL-23 STAT3 Reporter Assay). Settings: HEK-Blue IL23 cells stimulated with IL-23 overnight; SEAP read with QUANTI-Blue at OD655.
Format: cell-based, human
Method: HEK-Blue IL23 cells (InvivoGen catalog #HKB-IL23) are designed for the detection of bioactive IL-23 by monitoring the activation of the STAT3 pathway. They were generated by stably introducing the genes for the human IL-23 receptor, STAT3, and the SEAP (secreted embryonic alkaline phosphatase) reporter gene into human HEK293 cell line.
Briefly, around 50,000 cells in DMEM medium supplemented with 10% heat inactivated FBS (˜180 ul) were seeded into each well and incubate for 48 hours at 37° C. with 5% CO2 in air. On day 3, one microliter of compound and 20 ul IL-23 were transferred to the assay plate respectively. The plate was left in the 37° C. incubator overnight. Two microliter of cell supernatant was transferred to a 384-well plate, and 18 ul of resuspended QUANTI-Blue solution was added to each well. SLAP levels were determined using Tecan Spark at OD655.
Cells with no IL23 added were used as Low control. Cells stimulated with IL23 were used as High control. Inhibition rate was calculated with the formula of % inhibition=100*(High control−Treated Well)/(High Control−Low control). IL-23 reporter assay inhibition IC50 was calculated with the equation of Y=Bottom+(Top-Bottom)/(1+10^((Log IC50−X)*HillSlope)).

| Compound | IC50 |
| --- | --- |
| [2H]C([2H])([2H])NC(=O)c1nnc(NC(=O)C2CC2)cc1Nc1nccc2c1S(C)(=O)=NC2 (centres unmarked) [Compound 57] | 51.7 nM |
| [2H]C([2H])([2H])NC(=O)c1nnc(NC(=O)C2CCCC2)cc1Nc1nccc2c1S(C)(=O)=NC2 (centres unmarked) [Compound 90] | 4.2 nM |
| [2H]C([2H])([2H])NC(=O)c1nnc(NC(=O)N2CCCC2)cc1Nc1nccc2c1S(C)(=O)=NC2 (centres unmarked) [Compound 93] | 13.6 nM |

Same assay, conditions: Homo sapiens, HEK-Blue IL-23, HEK-Blue IL23 cells stimulated with IL-23 overnight; SEAP read with QUANTI-Blue at OD655

| Compound | IC50 |
| --- | --- |
| [2H]C([2H])([2H])NC(=O)c1nnc(Nc2cnc(C(C)(C)O)nc2)cc1Nc1ncc(OC)cc1S(C)(=O)=O [Compound 50] | 9.3 nM |
| [2H]C([2H])([2H])NC(=O)c1nnc(NC(=O)[C@@H]2CC23CC3)cc1Nc1ncc(OCCOC(F)F)cc1S(C)(=O)=O [Compound 116] | 3 nM |
| [2H]C([2H])([2H])NC(=O)c1nnc(NC(=O)C2CC23CC3)cc1Nc1nccc2c1S(C)(=O)=NC2 (centres unmarked) [Compound 8] | 2.6 nM |
| [2H]C([2H])([2H])NC(=O)c1nnc(NC(=O)C2CC2)cc1Nc1ncc(OCCOC=O)cc1S(C)(=O)=O [Compound 79] | 3.3 nM |
| [2H]C([2H])([2H])NC(=O)c1nnc(NC(=O)[C@H]2C[C@H](NC)C2)cc1Nc1ncc(C2CC2)cc1S(C)(=O)=O [Compound 87] | 19.9 nM |
| [2H]C([2H])([2H])NC(=O)c1nnc(NC(=O)C2CC2)cc1Nc1ncc(OC[C@@H](C)OC(F)F)cc1S(C)(=O)=O [Compound 75] | 1.6 nM |
| [2H]C([2H])([2H])NC(=O)c1nnc(NC(=O)[C@H]2CC23CC3)cc1Nc1nc(C)sc1S(C)(=O)=O [Compound 127] | 6.4 nM |
| [2H]C([2H])([2H])NC(=O)c1nnc(NC(=O)C(C)C)cc1Nc1ncc(OC)cc1S(C)(=O)=O [Compound 18] | 38.9 nM |
| [2H]C([2H])([2H])NC(=O)c1nnc(NC(=O)[C@H]2CC23CC3)cc1Nc1nc(C2CC2)sc1S(C)(=O)=O [Compound 123] | 19.8 nM |
| [2H]C([2H])([2H])NC(=O)c1nnc(NC(=O)[C@@H]2CC23CC3)cc1Nc1ncc(OCCOC=O)cc1S(C)(=O)=O [Compound 117] | 5.7 nM |
| [2H]C([2H])([2H])NC(=O)c1nnc(NC(=O)C2CC2)cc1Nc1ncc(OC(C)C)cc1S(C)(=O)=O [Compound 64] | 0.6 nM |
| [2H]C([2H])([2H])NC(=O)c1nnc(NC(=O)C2CC2(C)C)cc1Nc1ncc(OC)cc1S(C)(=O)=O (centres unmarked) [Compound 27] | 24.2 nM |
| [2H]C([2H])([2H])NC(=O)c1nnc(NC(=O)C2CCCC2)cc1Nc1ncc(OC)cc1S(C)(=O)=O [Compound 17] | 13.8 nM |
| [2H]C([2H])([2H])NC(=O)c1nnc(NC(=O)[C@H]2CC23CC3)cc1Nc1nccc(C2CC2)c1S(C)(=O)=O [Compound 101] | 11.5 nM |
